# Laboratory results as given in US10774051B2, “6-membered heterocyclic derivatives and pharmaceutical composition comprising the same” (Shionogi & Co., Ltd., priority 2015, dated 2020).
# Like-named read-outs stand apart in the source and are kept apart here.
# Target: human P2X7 receptor (Homo sapiens, UniProt Q99572, R270H/Y155H)
# Test: Evaluation of human P2X7 receptor inhibitory activity (Yo-Pro uptake, BzATP stimulation, FLIPR TETRA)
# Format: cell-based
# Summary of the method: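 Yo-Pro dye uptake triggered by BzATP was monitored by FLIPR in human P2X7-transfected 1321N1 cells (SNP variant) in HEPES-buffered HBSS, pH 7.4-7.5. Compound was dispensed 8 min post-stimulation, then signal read for 20 min; IC50 derived logistically from inhibition of the fluorescence range.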
# [1] = antagonistic activity for the human P2X7 receptor, read-out: IC50
SMILES,IC50 [1],"IC50 (1321N1 cells stably expressing human P2X7 receptor, BzATP stimulation, Yo-Pro uptake, read-out: IC50 (antagonistic activity for the human P2X7 receptor))"
Cc1cc(OC(F)F)ccc1Nc1nc(=O)c(F)cn1Cc1ccc(F)c(F)c1 [Compound I-1065],0.01 to 0.1 µM,–
COc1ccc(C)c(Nc2nc(=O)c(F)cn2Cc2ccc(F)c(Cl)c2)c1 [Compound I-1067],< 0.01 µM,–
COc1ccc(C)c(Nc2nc(=O)c(F)cn2Cc2ccc(F)c(F)c2)c1 [Compound I-1068],< 0.01 µM,–
COc1ccc(C)c(Nc2nc(=O)c(F)cn2Cc2cc(F)cc(F)c2)c1 [Compound I-1069],0.01 to 0.1 µM,–
COc1cc(C)c(Nc2nc(=O)c(F)cn2Cc2cc(F)c(F)c(F)c2)cc1C(C)C [Compound I-1070],0.01 to 0.1 µM,–
COc1cc(C)c(Nc2nc(=O)c(F)cn2Cc2cc(F)cc(F)c2)cc1C(C)C [Compound I-1071],–,0.015 µM
Cc1cc2c(cc1Nc1nc(=O)c(F)cn1Cc1ccc(F)c(F)c1)CCO2 [Compound I-1072],< 0.01 µM,–
Cc1cc2c(cc1Nc1nc(=O)c(F)cn1Cc1ccc(F)c(Cl)c1)CCO2 [Compound I-1073],< 0.01 µM,–
O=c1nc(Nc2cccc3c2CCN3)n(Cc2cc(F)cc(F)c2)cc1F [Compound I-1074],0.01 to 0.1 µM,–
Cc1nc2cc(Cl)c(Nc3nc(=O)c(F)cn3Cc3cc(F)cc(F)c3)cc2o1 [Compound I-1075],< 0.01 µM,–
Cc1nc2cc(Cl)c(Nc3nc(=O)c(F)cn3Cc3ccc(F)c(F)c3)cc2o1 [Compound I-1076],< 0.01 µM,–
Cc1nc2cc(Cl)c(Nc3nc(=O)c(F)cn3Cc3ccc(F)c(Cl)c3)cc2o1 [Compound I-1077],< 0.01 µM,–
Cc1nc2cc(Cl)c(Nc3nc(=O)c(F)cn3Cc3cc(F)c(F)c(F)c3)cc2o1 [Compound I-1078],< 0.01 µM,–
COC(=O)/C=C/c1ccc(C)c(Nc2nc(=O)c(OC)cn2Cc2cc(F)c(F)c(F)c2)c1 [Compound I-1079],0.01 to 0.1 µM,–
CCOC(=O)c1cn(Cc2cc(F)c(F)c(F)c2)c(Nc2ccc(OC)cc2C)nc1=O [Compound I-1080],0.01 to 0.1 µM,–
COc1cc(C)c(Nc2nc(=O)c(C(N)=O)cn2Cc2cc(F)c(F)c(F)c2)cc1C [Compound I-1081],0.01 to 0.1 µM,–
Cc1ccccc1Nc1nc(=O)c(F)cn1Cc1cc(F)c(F)c(F)c1 [Compound I-1082],< 0.01 µM,–
COc1cc(C)c(Nc2nc(=O)c(C#N)cn2Cc2cc(F)c(F)c(F)c2)cc1C [Compound I-1083],< 0.01 µM,–
COCc1ccc(C)c(Nc2nc(=O)c(F)cn2Cc2ccc(F)c(F)c2)c1 [Compound I-1084],< 0.01 µM,–
COCc1ccc(C)c(Nc2nc(=O)c(F)cn2Cc2ccc(F)c(Cl)c2)c1 [Compound I-1085],< 0.01 µM,–

SMILES,IC50 [1],"IC50 (1321N1 cells stably expressing human P2X7 receptor, BzATP stimulation, Yo-Pro uptake, read-out: IC50 (antagonistic activity for the human P2X7 receptor))"
COCc1ccc(C)c(Nc2nc(=O)c(F)cn2Cc2cc(F)c(F)c(F)c2)c1 [Compound I-1086],< 0.01 µM,–
COc1cc(C)c(Nc2nc(=O)c(F)cn2Cc2cc(F)c(F)c(F)c2)cc1F [Compound I-1087],< 0.01 µM,–
Cc1nc2cc(C)c(Nc3nc(=O)c(CCO)cn3Cc3cc(F)c(F)c(F)c3)cc2s1 [Compound I-1088],0.01 to 0.1 µM,–
Cc1cc(C)c(Nc2nc(=O)c(F)cn2Cc2ccc(F)c(Cl)c2)cc1CO [Compound I-1089],< 0.01 µM,–
Cc1nc2[nH]ccc2cc1Nc1nc(=O)c(F)cn1Cc1ccc(F)c(F)c1 [Compound I-1090],0.01 to 0.1 µM,–
Cc1nc2[nH]ccc2cc1Nc1nc(=O)c(F)cn1Cc1ccc(F)c(Cl)c1 [Compound I-1091],0.01 to 0.1 µM,–
Cc1cc2[nH]ncc2cc1Nc1nc(=O)c(F)cn1Cc1cc(F)cc(F)c1 [Compound I-1092],0.01 to 0.1 µM,–
Cc1cc2[nH]ncc2cc1Nc1nc(=O)c(F)cn1Cc1ccc(F)c(Cl)c1 [Compound I-1093],0.01 to 0.1 µM,–
Cc1cc2[nH]ncc2cc1Nc1nc(=O)c(F)cn1Cc1cc(F)c(F)c(F)c1 [Compound I-1094],< 0.01 µM,–
Cc1cc2[nH]ncc2cc1Nc1nc(=O)c(F)cn1Cc1ccc(F)c(F)c1 [Compound I-1095],0.01 to 0.1 µM,–
O=c1nc(Nc2cccc3cnccc23)n(Cc2cc(F)c(F)c(F)c2)cc1F [Compound I-1096],0.01 to 0.1 µM,–
COc1cn(Cc2cc(F)c(F)c(F)c2)c(Nc2ccccc2C)nc1=O [Compound I-1097],0.01 to 0.1 µM,–
Cc1ccccc1Nc1nc(=O)c(C)cn1Cc1cc(F)c(F)c(F)c1 [Compound I-1098],0.01 to 0.1 µM,–
COc1ccc(Nc2nc(=O)c(C(=O)O)cn2Cc2cc(F)c(F)c(F)c2)c(C)c1 [Compound I-1099],0.01 to 0.1 µM,–
COc1ccc(Nc2nc(=O)c(C(N)=O)cn2Cc2cc(F)c(F)c(F)c2)c(C)c1 [Compound I-1100],0.01 to 0.1 µM,–
COc1cc(C)c(Nc2nc(=O)c(F)cn2Cc2cc(F)cc(F)c2)cc1F [Compound I-1101],0.01 to 0.1 µM,–
Cc1cc(OC(F)(F)F)ccc1Nc1nc(=O)c(F)cn1Cc1cc(F)cc(F)c1 [Compound I-1102],0.01 to 0.1 µM,–
Cc1cc(OC(F)(F)F)ccc1Nc1nc(=O)c(F)cn1Cc1cc(F)c(F)c(F)c1 [Compound I-1103],0.01 to 0.1 µM,–
COc1ccc(Nc2nc(=O)c(CCO)cn2Cc2cc(F)c(F)c(F)c2)c(C)c1 [Compound I-1104],0.01 to 0.1 µM,–
O=c1nc(Nc2cccc3c(O)cccc23)n(Cc2cc(F)c(F)c(F)c2)cc1F [Compound I-1105],< 0.01 µM,–

SMILES,IC50 [1],"IC50 (1321N1 cells stably expressing human P2X7 receptor, BzATP stimulation, Yo-Pro uptake, read-out: IC50 (antagonistic activity for the human P2X7 receptor))"
CN1CCc2c(cccc2Nc2nc(=O)c(F)cn2Cc2cc(F)c(F)c(F)c2)C1 [Compound I-1107],0.01 to 0.1 µM,–
CCOC(=O)c1cn(Cc2ccc(F)c(F)c2)c(Nc2cc(C)c(OC)cc2C)nc1=O [Compound I-1109],< 0.01 µM,–
Cc1cc(C)c(Nc2nc(=O)c(F)cn2Cc2cc(F)c(F)c(F)c2)cc1CO [Compound I-1110],< 0.01 µM,–
Cc1cc(C)c(Nc2nc(=O)c(F)cn2Cc2cc(F)cc(F)c2)cc1CO [Compound I-1111],< 0.01 µM,–
COc1ccc(Nc2nc(=O)c(C#N)cn2Cc2cc(F)c(F)c(F)c2)c(C)c1 [Compound I-1112],0.01 to 0.1 µM,–
Cc1cc(C)c(Nc2nc(=O)c(Br)cn2Cc2cc(F)cc(F)c2)cc1C [Compound I-1113],< 0.01 µM,–
O=c1nc(Nc2cccc3c(O)cccc23)n(Cc2cc(F)cc(F)c2)cc1F [Compound I-1114],< 0.01 µM,–
O=c1nc(Nc2cccc3c(O)cccc23)n(Cc2ccc(F)c(F)c2)cc1F [Compound I-1115],< 0.01 µM,–
O=c1nc(Nc2cccc3c(O)cccc23)n(Cc2ccc(F)c(Cl)c2)cc1F [Compound I-1116],< 0.01 µM,–
COc1cc(Nc2nc(=O)c(F)cn2Cc2cc(F)c(F)c(F)c2)c(C)nc1F [Compound I-1117],0.01 to 0.1 µM,–
COc1cc(Nc2nc(=O)c(F)cn2Cc2cc(F)cc(F)c2)c(C)nc1F [Compound I-1118],0.1 to 0.5 µM,–
Cc1c(Nc2nc(=O)c(F)cn2Cc2cc(F)cc(F)c2)ccc2[nH]ccc12 [Compound I-1119],< 0.01 µM,–
Cc1c(Nc2nc(=O)c(F)cn2Cc2cc(F)c(F)c(F)c2)ccc2[nH]ccc12 [Compound I-1120],< 0.01 µM,–
CCOC(=O)c1cn(Cc2cc(F)c(F)c(F)c2)c(Nc2ccc(OC(F)F)cc2C)nc1=O [Compound I-1121],0.1 to 0.5 µM,–
CCOC(=O)c1cn(Cc2cc(F)c(F)c(F)c2)c(Nc2cc(OC)c(F)cc2C)nc1=O [Compound I-1122],0.01 to 0.1 µM,–
COc1ccc(C)c(Nc2nc(=O)c(C#N)cn2Cc2cc(F)cc(F)c2)c1 [Compound I-1123],0.1 to 0.5 µM,–
COCc1cn(Cc2cc(F)c(F)c(F)c2)c(Nc2ccc(OC(F)F)cc2C)nc1=O [Compound I-1124],0.01 to 0.1 µM,–
COCc1cn(Cc2cc(F)c(F)c(F)c2)c(Nc2cc(OCCO)ccc2C)nc1=O [Compound I-1125],0.01 to 0.1 µM,–
